Test results published in PubChem BioAssay AID850 (SRMLSC, 2007).
pIC50: −log10 of the molar value. Active and inactive are the calls of the source. The rule behind the calls is not given here.

What was measured:
[1] = tested on: Saccharomyces cerevisiae growth inhibition, permissive control; experiment: concentration-response yeast growth inhibition under permissive conditions, counter-assay for yeast lifespan-shortening chemical project (AID 850);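 note: growth read as optical density after one day of incubation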
[2] = as above; conditions: Saccharomyces cerevisiae growth inhibition, permissive control, measured here: maximum growth inhibition, stronger effect = higher value

| SMILES | IC50 [1] | inhibition ([2]; at 50 µM) [%] | pIC50 [1] | also measured |
| --- | --- | --- | --- | --- |
| COc1ccc(/C=C2/C(=O)ON=C2c2ccccc2)cc1OC | > 100 µM (inactive) |  |  | inhibition ([2]; at 25 µM): 27.4% |
| CC(C)c1ccc(NC(=S)NCCc2c[nH]c3ccccc23)cc1 | > 100 µM (inactive) |  |  | inhibition ([2]; at 3.125 µM): 20.3% |
| Cc1ccc(-c2[nH]nc(N)c2N=Nc2ccccc2C)cc1 | > 100 µM (inactive) |  |  | inhibition ([2]; at 0.391 µM): 17.6% |
| COc1ccc(CNC(=O)CSc2nnc(-c3ccc(NC(C)=O)cc3)n2C)cc1 | > 100 µM (inactive) |  |  | inhibition ([2]; at 3.125 µM): 26.8% |
| O=[N+]([O-])c1cc(/C=N/O)ccc1Sc1ccccc1 | > 100 µM (inactive) | 7.13 |  |  |
| Cc1nnc(C)n1/N=C/c1cc(Br)cc(Br)c1O |  | 99.2 | 6.49 |  |
| Cc1ccc(N/N=C(\C#N)C(N)=S)c(C)c1 | > 100 µM (inactive) |  |  | inhibition ([2]; at 25 µM): 4.57% |
| O=C(O)c1cc2c(s1)-c1ccccc1OC2 | > 100 µM (inactive) |  |  | inhibition ([2]; at 0.195 µM): 15.9% |
| CC1(CCc2ccccc2)NC(=S)N(c2ccccc2)N1 (centres undefined) |  | 99.8 | 5.04 |  |
| CCc1cc(-c2n[nH]c(C)c2Oc2ccc(C(C)C)cc2)c(O)cc1O |  | 75.6 | 4.46 |  |
| Cc1cc(Cl)ccc1N=c1ssnc1Cl | > 100 µM (inactive) |  |  | inhibition ([2]; at 12.5 µM): 14% |
| Cc1cccc(N=C2Sc3nc4c(C)c(C)ccc4cc3CN2CCN2CCOCC2)c1 |  | 99 | 4.35 |  |
| CNC(=O)c1cc2c(ccc3ccccc32)oc1=N |  | 74.8 | 4.63 |  |
| CCS(=O)(=O)n1nc(-c2ccc(Cl)cc2)nc1SCc1ccccc1 | > 100 µM (inactive) | 15 |  |  |
| CCCCOc1ccc(C(=O)NNC(=S)NC(=O)CC)cc1 |  | 81.6 | 4.61 |  |
| CCCn1c(C(C)NC(C)=O)nc2ccccc21 (centres undefined) | > 100 µM (inactive) |  |  | inhibition ([2]; at 12.5 µM): 9.66% |
| O=C(c1ccc(Cl)cc1)c1c[nH]c(C(=O)C(Cl)(Cl)Cl)c1 |  | 77.6 | 4.32 |  |
| Cc1nc2c(c(C)c1C#N)C(=O)c1ccccc1-2 | > 100 µM (inactive) | 16 |  |  |
| COc1cc2c(cc1OC)CN(C(=O)CSc1nnc3scc(-c4ccccc4)n13)CC2 | > 100 µM (inactive) |  |  | inhibition ([2]; at 0.781 µM): 17.1% |
| Cc1cccc(C(=O)NC(=S)NNC(=O)c2cccs2)c1 |  | 76 | 4.70 |  |
| c1ccc2c(c1)oc1c(N3CCOCC3)ncnc12 | > 100 µM (inactive) |  |  | inhibition ([2]; at 25 µM): 19.7% |

| SMILES | IC50 [1] | inhibition ([2]; at 50 µM) [%] | pIC50 [1] | also measured |
| --- | --- | --- | --- | --- |
| Oc1c(C(Nc2nc3ccccc3s2)c2ccco2)ccc2cccnc12 (centres undefined) | > 100 µM (inactive) | 23.2 |  |  |
| Cc1ccc(OC(=S)Nc2ccc(O)cc2)cc1 |  | 99.6 | 4.79 |  |
| c1ccc(-c2ccc(C(c3ccccc3)n3ccnc3)cc2)cc1 (centres undefined) |  |  | 6.10 | inhibition ([2]; at 3.125 µM): 94.4% |
| CC(=O)O/N=C/c1c(N2CCOCC2)n(C)c2ccccc12 |  | 96.5 | 4.76 |  |
| O=C(CC(=O)c1cc(Cl)ccc1O)c1ccccc1 | > 100 µM (inactive) |  |  | inhibition ([2]; at 12.5 µM): 24.9% |
| COC(=O)Cn1c2ccccc2c2nc(C)sc21 | > 100 µM (inactive) |  |  | inhibition ([2]; at 6.25 µM): 28.7% |
| CCOC(=O)c1c(NC(=S)Nc2ccc(Cl)cc2)sc2c1CCN(C)C2 |  |  | 5.09 | inhibition ([2]; at 25 µM): 99.8% |
| Nc1ccc(C(=O)OCC(=O)Nc2ccc3c(c2)OCO3)cc1[N+](=O)[O-] | > 100 µM (inactive) |  |  | inhibition ([2]; at 0.391 µM): 17.2% |
| Cc1cc(-c2n[nH]c(=S)n2/N=C/c2cc([N+](=O)[O-])ccc2Cl)n[nH]1 | > 100 µM (inactive) |  |  | inhibition ([2]; at 0.781 µM): -1.78% |
| O=[N+]([O-])c1ccc(O)c(/C=N/Nc2ccccn2)c1 | > 100 µM (inactive) |  |  | inhibition ([2]; at 0.781 µM): 16.1% |
| c1cnc2c(c1)ccc1cccnc12 |  | 100 | 5.08 |  |
| CCC(C)N1CC23C=CC(O2)C(C(=O)OC)C3C1=O (centres undefined) | > 100 µM (inactive) |  |  | inhibition ([2]; at 0.098 µM): 10.6% |
| Cc1ccc(/C(N)=N/OC(=O)c2ccc(C)cc2Cl)cc1 |  | 98.4 | 5.07 |  |
| Cn1c(C(=O)N2CCC(C(=O)N3CCN(Cc4ccc5c(c4)OCO5)CC3)CC2)cc2sccc21 | > 100 µM (inactive) |  |  | inhibition ([2]; at 12.5 µM): 18% |
| CCc1cccc(C)c1NC(=S)NCCc1c(C)[nH]c2ccc(C)cc12 | > 100 µM (inactive) | 8.58 |  |  |
| CCCc1ccc(Oc2c(-c3ccc(O)c(C)c3O)n[nH]c2C)cc1 |  | 93.6 | 4.83 |  |
| COc1ccc(CCNC(=O)c2cnn3c(C(F)F)cc(C)nc23)cc1OC | > 100 µM (inactive) |  |  | inhibition ([2]; at 3.125 µM): -1.3% |
| OC(CNCCC1C=Nc2ccccc21)Cn1c2ccc(Cl)cc2c2cc(Cl)ccc21 (centres undefined) |  | 100 | 4.73 |  |
| COc1ccc(OCc2nnc3n2N=C(c2ccc(OC)cc2)CS3)cc1 | > 100 µM (inactive) |  |  | inhibition ([2]; at 0.781 µM): 20.9% |
| CC1CCN(c2nc(/C=C/c3ccccc3)nc3ccccc23)CC1 |  | 100 | 4.65 |  |
| COc1ccccc1-c1nnc(NC(=O)C(C)SC2=NCCS2)s1 (centres undefined) | > 100 µM (inactive) |  |  | inhibition ([2]; at 12.5 µM): 16.8% |

| SMILES | IC50 [1] | inhibition ([2]; at 50 µM) [%] | pIC50 [1] | also measured |
| --- | --- | --- | --- | --- |
| CC(Nc1ccc(Br)cn1)c1cc(Cl)ccc1O (centres undefined) | > 100 µM (inactive) |  |  | inhibition ([2]; at 0.781 µM): 12.8% |
| CCc1ccc2c(c1)C1(NN=C(c3ccc(C)cc3)S1)C(=O)N2 (centres undefined) |  | 98 | 4.67 |  |
| CCOc1cc(/C=N/Nc2ccccc2Cl)ccc1OCC(=O)O |  | 99 | 5.04 |  |
| C=C(C)COc1ccc(-c2[nH]ncc2-c2ccccc2)c(O)c1 |  | 86.8 | 4.41 |  |
| O=c1[nH]c2ccccc2c2nc3ccccn3c12 | > 100 µM (inactive) |  |  | inhibition ([2]; at 25 µM): 18.1% |
| OCc1ccnc2c(O)cccc12 |  | 44.1 | 4.30 |  |
| CC(C)CN=Cc1c(O)c([N+](=O)[O-])cc2oc3c(c12)CCCC3 |  | 60.1 | 4.39 |  |
| CC(C)N=c1scc(-c2cccs2)n1/N=C/c1ccc(O)c(O)c1O | > 100 µM (inactive) |  |  | inhibition ([2]; at 0.195 µM): 2.13% |
| O=C(O)CSc1cccc[n+]1[O-] |  | 94.2 | 4.54 |  |
| CCCn1c(CNc2ccccc2O)nc2ccccc21 | > 100 µM (inactive) | 18.9 |  |  |
| Oc1c(CN2CCN(c3ccc(F)cc3)CC2)cc(Cl)c2cccnc12 |  | 100 | 4.91 |  |
| COc1cccc(CC(=O)Nc2ccc3nc(C)sc3c2)c1 |  | 96.5 | 4.80 |  |
| CC12C(=O)N(c3cccc4cccnc34)C(=O)C1C1C=CC2C1 (centres undefined) | > 100 µM (inactive) |  |  | inhibition ([2]; at 0.781 µM): 13.8% |
| Clc1ccccc1N/N=C/c1ccc2c(c1)OCO2 |  | 98 | 4.61 |  |
| CCCCN=C(NNc1ccc(Br)cc1)C(=O)OCC |  | 97.9 | 5.26 |  |
| COC1=C(c2ccccc2)C(=O)c2ccccc2C1=O |  | 96.4 | 4.70 |  |
| O=C(OCn1ncc(Br)c(Br)c1=O)c1ccc(F)cc1 |  |  | 5.11 | inhibition ([2]; at 12.5 µM): 78.7% |
| COc1ccc(/C=C/C(=O)c2cc(Br)ccc(=O)c2O)cc1 |  | 93.6 | 4.79 |  |
| COc1ccc(-c2[nH]ncc2-c2ccc(Cl)cc2)c(O)c1 | > 100 µM (inactive) |  |  | inhibition ([2]; at 0.781 µM): 14.4% |
| CSC1=NSC2=NC(=O)/C(=C/c3coc4ccccc4c3=O)C(=N)N12 | > 100 µM (inactive) | 28.3 |  |  |
| C/C(=N\Nc1nc2c(s1)CCCC2)c1ccccc1 |  | 99.1 | 4.55 |  |

| SMILES | IC50 [1] | inhibition ([2]; at 50 µM) [%] | pIC50 [1] | also measured |
| --- | --- | --- | --- | --- |
| CC(=O)N1c2ccccc2C2(O)N=C(C)SC12 (centres undefined) | > 100 µM (inactive) | 16 |  |  |
| Oc1cccc(/C=N/NC(=S)Nc2cccnc2)c1O | > 100 µM (inactive) |  |  | inhibition ([2]; at 0.781 µM): 7.13% |
| O=[N+]([O-])c1ccc(Sc2nc3ccccc3o2)c([N+](=O)[O-])c1 |  | 48.3 | 4.30 |  |
| N#CSCC(=O)c1cccc2ccccc12 | > 100 µM (inactive) |  |  | inhibition ([2]; at 12.5 µM): 26.9% |
| COC(=O)Cn1c2ccc(C)cc2c2nc(C)sc21 | > 100 µM (inactive) | 16 |  |  |
| O=S(=O)(Nc1ccc(-n2cccc2)cc1)c1ccc(Cl)cc1Cl | > 100 µM (inactive) |  |  | inhibition ([2]; at 0.391 µM): 29.9% |
| CCCCCCc1ccc(-c2ncc(N)cn2)cc1 |  | 99.2 | 4.64 |  |
| Cc1ccc(-n2c(C)cc(C(=O)COC(=O)c3ccc[nH]c3=O)c2C)cc1C |  | 99.6 | 4.97 |  |
| O=C(c1cc(-c2ccccc2O)on1)N1CCc2ccccc2C1 | > 100 µM (inactive) |  |  | inhibition ([2]; at 0.391 µM): 16.3% |
| CC(C)(C)c1nnc(N/N=C/c2cc(Br)ccc2O)n(N)c1=O |  | 50.9 | 4.30 |  |
| CC1CCCCN1S(=O)(=O)c1coc(C(N)=O)c1 (centres undefined) | > 100 µM (inactive) |  |  | inhibition ([2]; at 3.125 µM): 3.72% |
| CC(C)C(=O)NC(c1ccccc1)c1cc([N+](=O)[O-])c2cccnc2c1O (centres undefined) |  | 93.4 | 4.53 |  |
| CCCCCCN1N=C(C)C(C(=O)c2ccc(Cl)cc2)C1=O (centres undefined) |  | 75 | 4.61 |  |
| O=C(Nc1ccc(Cl)cc1)ON=C1CCCC1 |  |  | 5.13 | inhibition ([2]; at 25 µM): 99.4% |
| OC(CNCCc1ccc(C(F)(F)F)cc1)COc1ccc2ccccc2c1 (centres undefined) | > 100 µM (inactive) | 20.9 |  |  |
| Oc1ccc(-c2csc(-c3ccccc3)n2)cc1O |  | 99.8 | 4.66 |  |
| CCOC(=O)N1CCN(C(=O)Cn2nc(C)c3sc4ccccc4c3c2=O)CC1 | > 100 µM (inactive) |  |  | inhibition ([2]; at 25 µM): 12.1% |
| COc1ccccc1C(=O)NNC(=S)NC(=O)c1ccco1 | > 100 µM (inactive) | 29.3 |  |  |
| COc1cc(Br)cc(/C=N/c2ncn[nH]2)c1O |  | 97.8 | 4.74 |  |
